For one molecule, inhibition results are on record in ChEMBL document CHEMBL6087451, “Design, Synthesis, and Biological Evaluation of 2-Arylaminopyrimidine Derivatives as Dual Cathepsin L and JAK Inhibitors for the Treatment of Acute Lung Injury” (J Med Chem, 2025).

Structures are written as SMILES. The source made the active and inactive calls. No cut-off for these calls is given here.

The target in experiment [1] is Receptor-type tyrosine-protein kinase FLT3 (Homo sapiens) (UniProt P36888). Briefly: Inhibition of FLT3 (unknown origin) at 1 uM by kinase profiling analysis relative to control.
Experiment [2] deals with RAW264.7. Briefly: Anti-inflammatory activity against mouse RAW264.7 cells transfected with CTSL siRNA assessed as inhibition of LPS-induced IL-6 level by Western blot analysis. The experiment is classed as functional, cell-based. Background: Immunoblotting shows a protein as a band on a membrane.
Experiment [3] has as its system HBE. As to the kind of experiment: Anti-inflammatory activity against HBE cells assessed as inhibition of LPS-induced IL-8 level pretreated for 30 mins followed by LPS treatment for 24 hrs by ELISA. Particulars: Homo sapiens, dose <= 5.0 µM, time 24.5 hrs. A general note: An ELISA detects its analyte on a solid surface through an enzyme-linked reagent.

Chain of Receptor-type tyrosine-protein kinase FLT3 (Homo sapiens) (P36888 whole entry): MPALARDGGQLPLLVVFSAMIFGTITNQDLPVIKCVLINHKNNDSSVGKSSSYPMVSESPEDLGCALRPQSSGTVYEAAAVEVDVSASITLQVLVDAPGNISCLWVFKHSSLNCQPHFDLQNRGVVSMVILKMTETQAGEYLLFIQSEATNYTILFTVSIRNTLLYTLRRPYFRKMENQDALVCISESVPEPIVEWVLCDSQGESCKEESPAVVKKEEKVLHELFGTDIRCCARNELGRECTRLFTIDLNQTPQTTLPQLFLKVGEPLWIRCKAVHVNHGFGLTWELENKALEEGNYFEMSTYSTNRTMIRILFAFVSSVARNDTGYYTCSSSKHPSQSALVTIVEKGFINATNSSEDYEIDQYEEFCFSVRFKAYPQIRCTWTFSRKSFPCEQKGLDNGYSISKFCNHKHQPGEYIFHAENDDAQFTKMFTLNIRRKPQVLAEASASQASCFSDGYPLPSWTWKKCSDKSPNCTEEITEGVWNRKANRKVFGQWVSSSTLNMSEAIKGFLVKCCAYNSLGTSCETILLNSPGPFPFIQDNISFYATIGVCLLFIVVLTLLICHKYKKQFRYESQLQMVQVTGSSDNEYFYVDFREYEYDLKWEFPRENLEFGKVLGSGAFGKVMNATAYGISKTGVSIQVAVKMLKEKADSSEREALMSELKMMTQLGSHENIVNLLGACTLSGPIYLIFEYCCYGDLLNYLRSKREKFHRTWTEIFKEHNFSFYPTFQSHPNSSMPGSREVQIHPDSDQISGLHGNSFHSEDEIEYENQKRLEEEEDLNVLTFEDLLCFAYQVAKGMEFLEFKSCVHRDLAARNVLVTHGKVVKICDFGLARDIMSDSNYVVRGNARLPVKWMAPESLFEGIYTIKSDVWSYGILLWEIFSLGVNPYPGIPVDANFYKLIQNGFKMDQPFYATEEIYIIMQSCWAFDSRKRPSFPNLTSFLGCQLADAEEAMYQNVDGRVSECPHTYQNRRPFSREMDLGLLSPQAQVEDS

As a reminder, the inhibition is the change of the read-out against control, counted positive when it falls. Consider `Cl.Cn1cc(-c2ccnc(Nc3cccc(N)c3)n2)c2ccccc21`, for which the inhibition in experiment [1] was 103%; in experiment [3], “Dose-dependent-effect”. Also, in experiment [2], the inhibition result is “inactive”.
